Source: ChEMBL document CHEMBL2331181, “Synthesis and in vitro cytotoxic activity evaluation of novel heterocycle bridged carbothioamide type isosteviol derivatives as antitumor agents” (Bioorg Med Chem Lett, 2013)

What was measured:
Format in all cases: functional, cell-based
HeLa = assay: Cytotoxicity against human HeLa cells after 48 hrs by MTT assay
Raji = assay: Cytotoxicity against human Raji cells after 48 hrs by MTT assay
A549 = assay: Cytotoxicity against human A549 cells after 48 hrs by MTT assay; details: A549, 48 h
SGC-7901 = assay: Cytotoxicity against human SGC7901 cells after 48 hrs by MTT assay; details: SGC-7901, 48 h

SMILES	IC50 (HeLa) [µM]	IC50 (Raji) [µM]	IC50 (A549) [µM]	IC50 (SGC-7901) [µM]
CCOC(=O)[C@]1(C)CCC[C@@]2(C)[C@@H]3CC[C@@]4(C)C[C@]3(CC[C@@H]21)[C@@H]1CON(C(=S)Nc2ccc([N+](=O)[O-])cc2)[C@@H]14	> 50	23.5	> 50	49.8
CCOC(=O)[C@]1(C)CCC[C@@]2(C)[C@@H]3CC[C@@]4(C)C[C@]3(CC[C@@H]21)c1cn(C(=S)Nc2cccc(Cl)c2)nc14	> 50	16	39.1	16.9
CCOC(=O)[C@]1(C)CCC[C@@]2(C)[C@@H]3CC[C@@]4(C)C[C@]3(CC[C@@H]21)c1cn(C(=S)Nc2cccc(OC)c2)nc14	> 50	15.1	23.3	12.5
CCOC(=O)[C@]1(C)CCC[C@@]2(C)[C@@H]3CC[C@@]4(C)C[C@]3(CC[C@@H]21)c1cn(C(=S)Nc2ccccc2F)nc14	47.5	11.1	18.8	20.7
